From patent US20260284011A1, “COMPOUNDS FOR RESTORING SUSCEPTIBILITY TO BETA-LACTAM ANTIBIOTICS” (UNIVERSITY OF NOTRE DAME DU LAC, priority 2023, published 2026)

How the values were obtained:
[1] = biological target: BlaR (Staphylococcus aureus, UniProt P18357); test: Live-cell fluorescent assay for BlaR inhibition (Venus reporter); type: cell-based, S. aureus NRS144pCN52RI-Venus; conditions: compound at 100 mg/L^−1; CBAP 10 mg·L^−1; fluorescence after 2 h
Excerpt: Live-Cell Fluorescent Assay in Discovery and Mechanism of Action. We conceived of fluorescent constructs in the bla operon, for the purpose of screening (FIG. 2a). We removed the gene for the β-lactamase (blaZ) and put in its place individually the genes for the Green Fluorescent Protein (GFP), Venus (a yellow-fluorescent protein) or mCherry (a red-fluorescent protein) in the template plasmid pCN52. The three plasmids were named pCN52RI, pCN52RI-Venus and pCN52RI-mCherry, respectively. The genes for the fluorescent proteins were transcribed under the promoter of the blaZ gene and were regulated by the proteins BlaR and BlaI, as is the case for the wild-type bla operon.
We transformed separately S. aureus NRS144—a laboratory strain that accepts a foreign gene and harbors neither the bla nor the mec operons—with each of these plasmids. […] When induced, the fluorescent protein is produced and is detected (akin to expression of the resistance genes blaZ or mecA in typical MSSA and MRSA). […] The transformed strains were grown in tryptic soy broth medium for overnight culture and strain maintenance and incubated in cation-adjusted Mueller-Hinton broth medium for inhibitor screening in a 96-well microplate format. The culture without CBAP addition was the negative control. In order to select a desirable reporter construct, we compared the intensity of the fluorescence produced from each construct at the wavelengths given in FIG. 2a using the Cytation-5 multi-mode microplate reader. Among the three constructs, pCN52RI-Venus produced the best fluorescence intensity and pCN52RI-mCherry was the second best (FIG. 4).
(§1) The collection of the 100 compounds from the in-silico search was screened against S. aureus NRS144pCN52RI-Venus. The screening strategy was as follows. Bacteria grown to OD600 of 0.25 were exposed concurrently to CBAP (10 mg·L^−1) and the test compound (100 mg·L^−1). Fluorescence was recorded after two hours of incubation. OD600 values were also recorded to identify compounds with inherent antibacterial activity. Compound 1 (Chart 1) emerged—82% diminished fluorescence as an indication of the extent of BlaR inhibition—as a suitable template for structure elaboration. This effort led to the synthesis of several dozen benzimidazole and imidazole compounds. The progression of the iterative design is depicted in Chart 1 for four compounds, culminating in 4. […] The X-ray structures for the complexes of compounds 2 (non-covalent) and 4 (covalent) with the BlaR sensor domain are shown respectively in FIG. 2b (2.0 Å resolution) and FIG. 2c (1.97 Å resolution). Compound 4 makes a covalent bond with the catalytic Ser389 and creates a network of hydrogen bonds with the BlaR active site (FIG. 2c).
(§2) Fluorescent assay for screening of BlaR potential inhibitors. A 3-mL portion of lysogeny broth (LB) medium was inoculated with NRS144pCN52RI Venus from frozen stocks and grown overnight at 37° C. The overnight culture was then diluted 1:150 fold with fresh LB containing […] of erythromycin and incubated at 37° C. to an OD600 of 0.3, at which point fluorescence was induced by the addition of CBAP to a final concentration of 10 μg·mL^−1. The culture was aliquoted (99 L) into 96-well plate and 1 L of inhibitor solution (1 mg·mL^−1 in DMSO) was added to each well. Negative control (DMSO without CBAP) and positive control (CBAP without inhibitor) were included. The plate was incubated at 30° C. for 2 h with intermittent shaking. Fluorescence and OD600 measurements were taken by a Cytation-5 multimode microplate reader. Percent inhibition of BlaR and bacterial growth were calculated using absorbance unit (AU) and OD600 values of each sample entered into this formula: […]

[2] = test system: S. aureus NRS144pCN52RI-Venus; test: Bacterial growth inhibition (OD600) in the fluorescent screening assay; type: cell-based, Staphylococcus aureus; conditions: compound at 100 mg/L^−1; OD600 after 2 h
Procedure: as §1, §2

Chain of BlaR (P18357 whole entry): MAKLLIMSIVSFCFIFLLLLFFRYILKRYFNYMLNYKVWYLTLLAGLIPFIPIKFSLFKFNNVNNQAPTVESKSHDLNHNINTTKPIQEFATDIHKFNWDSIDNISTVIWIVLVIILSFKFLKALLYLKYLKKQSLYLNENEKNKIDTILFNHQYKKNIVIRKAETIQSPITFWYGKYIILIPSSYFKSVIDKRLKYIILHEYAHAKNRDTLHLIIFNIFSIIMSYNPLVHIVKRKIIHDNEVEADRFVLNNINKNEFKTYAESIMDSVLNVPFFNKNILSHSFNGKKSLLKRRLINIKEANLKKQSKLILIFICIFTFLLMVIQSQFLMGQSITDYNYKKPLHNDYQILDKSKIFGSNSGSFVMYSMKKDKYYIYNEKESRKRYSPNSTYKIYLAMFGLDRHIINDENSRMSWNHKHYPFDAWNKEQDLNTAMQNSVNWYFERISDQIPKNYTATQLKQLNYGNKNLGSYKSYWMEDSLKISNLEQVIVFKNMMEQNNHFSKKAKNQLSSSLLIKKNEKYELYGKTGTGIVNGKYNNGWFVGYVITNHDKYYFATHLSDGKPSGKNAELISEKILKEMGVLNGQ

CC(=O)NCc1ccc2nc(S)n(Cc3ccc(C(F)(F)F)cc3C(F)(F)F)c2c1
% Inhibition of BlaR [1]: 70%
% Inhibition of bacterial growth [2]: 0%

OC[C@@H](O)[C@H](O)[C@H](O)c1cn(Cc2ccccc2)c(=S)[nH]1
% Inhibition of BlaR [1]: 13%
% Inhibition of bacterial growth [2]: 0%

OC[C@@H](O)[C@@H](O)c1cn(Cc2ccccc2)c(=S)[nH]1
% Inhibition of BlaR [1]: 11%
% Inhibition of bacterial growth [2]: 0%

O=S(=O)(O)c1nc2ccccc2n1Cc1ccc(C(F)(F)F)cc1C(F)(F)F [Compound 1, 1-[[2,4-Bis(trifluoromethyl)phenyl]methyl]benzimidazole-2-sulfonic acid]
% Inhibition of BlaR [1]: 82%
% Inhibition of bacterial growth [2]: 0%

OCc1cn(Cc2ccc(C(F)(F)F)cc2C(F)(F)F)c(=S)[nH]1 [Compound 2, 4-(Hydroxymethyl)-1-[[2,4-bis(trifluoromethyl)phenyl]methyl]-2H-imidazole-2-thione]
% Inhibition of BlaR [1]: 92%
% Inhibition of bacterial growth [2]: 0%

OB(O)CSc1nc2ccccc2n1Cc1ccc(C(F)(F)F)cc1C(F)(F)F [Compound 3]
% Inhibition of BlaR [1]: 98%
% Inhibition of bacterial growth [2]: 20%

FC(F)(F)c1ccc(Cn2c(=S)[nH]c3ccccc32)c(C(F)(F)F)c1 [Compound 8, 1-[[2,4-Bis(trifluoromethyl)phenyl]methyl]benzimidazole-2-thione]
% Inhibition of BlaR [1]: 65%
% Inhibition of bacterial growth [2]: 10%

N#Cc1ccc2c(c1)[nH]c(=S)n2Cc1ccc(C(F)(F)F)cc1C(F)(F)F [Compound 9, 1-[2,4-bis(trifluoromethyl)benzyl]-5-nitrile-benzimidazole-2-thione]
% Inhibition of bacterial growth [2]: 97%

O=S(=O)(O)c1nc2ccccc2n1Cc1ccc(F)cc1C(F)(F)F [Compound 11]
% Inhibition of BlaR [1]: 78%
% Inhibition of bacterial growth [2]: 0%

O=S(=O)(O)c1nc2ccccc2n1Cc1ccc(Cl)cc1 [Compound 12]
% Inhibition of BlaR [1]: 72%
% Inhibition of bacterial growth [2]: 0%

O=S(=O)(O)c1nc2ccccc2n1Cc1ccccc1C(F)(F)F [Compound 13]
% Inhibition of BlaR [1]: 69%
% Inhibition of bacterial growth [2]: 0%

NCc1ccc2nc(S)n(Cc3ccc(C(F)(F)F)cc3C(F)(F)F)c2c1 [Compound 14]
% Inhibition of BlaR [1]: 60%
% Inhibition of bacterial growth [2]: 0%

COC(=O)c1ccc2nc(S)n(Cc3ccc(C(F)(F)F)cc3C(F)(F)F)c2c1 [Compound 15]
% Inhibition of BlaR [1]: 10%
% Inhibition of bacterial growth [2]: 0%

COC(=O)c1ccc2nc(S(=O)(=O)O)n(Cc3ccc(C(F)(F)F)cc3C(F)(F)F)c2c1 [Compound 16]
% Inhibition of BlaR [1]: 20%
% Inhibition of bacterial growth [2]: 0%

OCc1ccc2nc(S)n(Cc3ccc(C(F)(F)F)cc3C(F)(F)F)c2c1 [Compound 17]
% Inhibition of BlaR [1]: 0%
% Inhibition of bacterial growth [2]: 99%

COC(=O)c1ccc2nc(N)n(Cc3ccc(C(F)(F)F)cc3C(F)(F)F)c2c1 [Compound 20]
% Inhibition of bacterial growth [2]: 0%

O=C(/C=C/c1ccc(F)cc1)NCc1ccc2nc(S(=O)(=O)O)n(Cc3ccc(C(F)(F)F)cc3C(F)(F)F)c2c1 [Compound 24]
% Inhibition of bacterial growth [2]: 24, R^4 = F, R^5 = H, X = SO3H, 100; 100%

C[N+]12CC(=O)O[B-]1(CSc1nc3ccccc3n1Cc1ccc(C(F)(F)F)cc1C(F)(F)F)OC(=O)C2 (stereo not drawn) [Compound 31, (T-4)-[N-[(Carboxy-κO)methyl]-N-methylglycinato(2-)-κN,κO][[N^1-[[2,4-bis(trifluoromethyl)phenyl]methyl]-1H-benzimidazole-1-yl]thiomethyl]boron]
% Inhibition of bacterial growth [2]: 13%

OCCc1nc2ccccc2n1Cc1ccc(C(F)(F)F)cc1C(F)(F)F [Compound 44]
% Inhibition of bacterial growth [2]: 40%

CC(C)(C)OC(=O)NCc1cn(Cc2ccc(C(F)(F)F)cc2C(F)(F)F)c(=S)[nH]1 [Compound 47]
% Inhibition of bacterial growth [2]: 0%

NS(=O)(=O)c1nc([C@H](O)[C@H](O)CO)cn1Cc1ccccc1 [Compound 53]
% Inhibition of bacterial growth [2]: 49%

O=S(=O)(F)c1nc(CO)cn1Cc1ccc(C(F)(F)F)cc1C(F)(F)F [Compound 59]
% Inhibition of bacterial growth [2]: 83%
